Experimental findings from PubChem BioAssay (NCI) are described below.

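Test compounds were applied to cells in 96-well plates for 48 hours at 5 doses. GI50 = concentration required for 50% inhibition of growth. At the TGI there is no net growth.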 Bounds are passed on as bounds.

Among the test systems are DU-145 prostate; M14 melanoma; UACC-62 melanoma; K-562 leukemia; OVCAR-4 ovarian; CAKI-1 renal; KM12 colon; MOLT-4 leukemia.
Experiment in all cases: NCI-60 cell line screen, 48 h

Regarding `O=C(Nc1ccc(Cl)cc1F)c1cc(F)ccc1O`, the GI50 with DU-145 prostate is 1.24 µM; in the assay on M14 melanoma it was 1.11 µM; with UACC-62 melanoma it was 0.289 µM; with K-562 leukemia it was 0.609 µM; in the assay on OVCAR-4 ovarian, 0.941 µM; in the assay on CAKI-1 renal it was 0.588 µM. Also, the GI50 with KM12 colon was 2.03 µM; with MOLT-4 leukemia, 1.9 µM. For the same molecule, the TGI in the assay with DU-145 prostate was more than 46.3 µM; in the assay on M14 melanoma, 5.44 µM; in the assay with UACC-62 melanoma, 1.15 µM; with K-562 leukemia, more than 100 µM; in the assay with OVCAR-4 ovarian, more than 29.6 µM; in the assay with CAKI-1 renal, 4.54 µM. Also, the figures for the TGI in the assay on KM12 colon and in the assay on MOLT-4 leukemia were 5.56 µM and 4.77 µM, respectively.

As for `Cc1c2cnccc2c(C)c2c1c1cc(C(=O)O)ccc1n2C`, the GI50 was 1.14 µM in the assay on DU-145 prostate; 1.3 µM in the assay on M14 melanoma; 0.546 µM with UACC-62 melanoma; 1.28 µM in the assay with K-562 leukemia; 1.43 µM with OVCAR-4 ovarian; 0.616 µM in the assay on CAKI-1 renal. Also, the GI50 in the assay with KM12 colon is 1.04 µM; with MOLT-4 leukemia, 0.53 µM. Further, the TGI in the assay on DU-145 prostate is 5.96 µM; in the assay with M14 melanoma, 3.74 µM; with UACC-62 melanoma, 2.12 µM; in the assay with K-562 leukemia, more than 100 µM; in the assay on OVCAR-4 ovarian, 6.59 µM; with CAKI-1 renal it was 8.34 µM. Besides, the TGI worked out at 6.92 µM in the assay with KM12 colon and 3.38 µM with MOLT-4 leukemia.

In the case of `C=CC(=O)NCCOc1cccc(Nc2cc(NCCCNC(=O)C3CCC3)c(Br)cn2)c1`, the GI50 with DU-145 prostate was 1.21 µM; in the assay on M14 melanoma it was 1.79 µM; in the assay on UACC-62 melanoma, 2.58 µM; in the assay with K-562 leukemia it was 1.16 µM; in the assay on OVCAR-4 ovarian, 1.26 µM; in the assay on CAKI-1 renal it was 0.434 µM. Moreover, the results for the GI50 in the assay on KM12 colon and with MOLT-4 leukemia were 0.954 µM and 1.37 µM, respectively. In addition, the TGI with DU-145 prostate was more than 25 µM; with M14 melanoma, 7.86 µM; with UACC-62 melanoma, 6.87 µM; in the assay on K-562 leukemia, more than 25 µM; in the assay on OVCAR-4 ovarian, 10.7 µM; in the assay on CAKI-1 renal, 1.75 µM. Also, the TGI in the assay with KM12 colon and with MOLT-4 leukemia was more than 25 µM throughout.

Consider `NC(=O)c1ccc2nc(-c3ccc(C4(N)CCC4)cc3)c(-c3ccccc3)n2n1`, for which the GI50 in the assay with DU-145 prostate was 14.8 µM; with M14 melanoma, 14.3 µM; in the assay on UACC-62 melanoma it was 10.3 µM; in the assay with K-562 leukemia, 13.7 µM; with OVCAR-4 ovarian, 16 µM; in the assay with CAKI-1 renal, 10.3 µM. Also, the GI50 with KM12 colon was 10.5 µM; in the assay on MOLT-4 leukemia, 0.741 µM. Moreover, the TGI worked out at 33.1 µM with DU-145 prostate; 28.6 µM in the assay on M14 melanoma; 22.7 µM with UACC-62 melanoma; 36.9 µM in the assay with K-562 leukemia; 44.6 µM with OVCAR-4 ovarian; 23.9 µM with CAKI-1 renal. Further, the TGI was 25.3 µM in the assay on KM12 colon and 19.2 µM in the assay with MOLT-4 leukemia.

For the molecule `O=C(C[C@@]1(O)C(=O)Nc2c(Cl)ccc(Cl)c21)c1ccc(C2CC2)cc1`, the GI50 was 0.492 µM with DU-145 prostate; 0.184 µM in the assay on M14 melanoma; 0.378 µM in the assay on UACC-62 melanoma; 0.05 µM with K-562 leukemia; 6.01 µM in the assay with OVCAR-4 ovarian; 0.214 µM in the assay on CAKI-1 renal. For the same molecule, the GI50 in the assay with KM12 colon is 0.318 µM; with MOLT-4 leukemia it was 0.505 µM. Further, the TGI is 17.1 µM with DU-145 prostate; 13.8 µM in the assay with M14 melanoma; 15.6 µM with UACC-62 melanoma; more than 51.7 µM in the assay with K-562 leukemia; 39.8 µM in the assay on OVCAR-4 ovarian; 17.2 µM with CAKI-1 renal. Further, the TGI was found to be 14.2 µM in the assay with KM12 colon and 14.6 µM with MOLT-4 leukemia.

For `Cc1coc2c1CC1OC1(C)CCC1OC1(C)C2` (centres undefined), the TGI in the assay on DU-145 prostate, with M14 melanoma, in the assay with UACC-62 melanoma, in the assay with K-562 leukemia, in the assay with OVCAR-4 ovarian and in the assay with CAKI-1 renal was more than 100 µM each time. The TGI with KM12 colon and in the assay with MOLT-4 leukemia was more than 100 µM each time.

On to `C/C(=C1/N=C(c2ccccc2)OC1=O)c1ccc(C)cc1`, for which the TGI with DU-145 prostate, in the assay on M14 melanoma, with UACC-62 melanoma, in the assay with K-562 leukemia, in the assay on OVCAR-4 ovarian and in the assay on CAKI-1 renal was more than 100 µM each time. In addition, the TGI with KM12 colon and in the assay with MOLT-4 leukemia was more than 100 µM each time.

On to `Cc1cc(Nc2cc(CN3CCOCC3)c3nc(C)c(Cc4ccc(Cl)cc4F)n3n2)n[nH]1`, for which the GI50 with DU-145 prostate is 1.24 µM; in the assay with M14 melanoma it was 1.83 µM; with UACC-62 melanoma, 2.36 µM; in the assay with K-562 leukemia, 0.473 µM; in the assay on OVCAR-4 ovarian, 2.85 µM; in the assay with CAKI-1 renal, 1.74 µM. Moreover, the GI50 is 0.0481 µM with KM12 colon and 1.59 µM with MOLT-4 leukemia. Also, the TGI in the assay with DU-145 prostate was determined as 11.5 µM; in the assay on M14 melanoma it was 14.2 µM; in the assay with UACC-62 melanoma, 11.3 µM; with K-562 leukemia, 13.6 µM; in the assay with OVCAR-4 ovarian it was 16.7 µM; in the assay with CAKI-1 renal, 4.67 µM. The TGI was 5.6 µM with KM12 colon and 6.71 µM with MOLT-4 leukemia.

`COc1cc(-c2cc(-c3nc4cc(Cl)c(Cl)cc4[nH]3)[nH]n2)cc(OC)c1OC`: the GI50 is 4.16 µM in the assay on DU-145 prostate; 3.57 µM in the assay with M14 melanoma; 1.94 µM in the assay on UACC-62 melanoma; 3.3 µM with K-562 leukemia; 2.21 µM with OVCAR-4 ovarian; 3.81 µM with CAKI-1 renal. Further, the GI50 in the assay on KM12 colon was 3.56 µM; with MOLT-4 leukemia, 2.49 µM. Further, the TGI was 15.2 µM with DU-145 prostate; 13.3 µM with M14 melanoma; 4.31 µM in the assay on UACC-62 melanoma; 24.9 µM in the assay with K-562 leukemia; 6.77 µM in the assay on OVCAR-4 ovarian; 12.9 µM in the assay with CAKI-1 renal. In addition, the TGI with KM12 colon stood at 13.9 µM; in the assay on MOLT-4 leukemia, 6.29 µM.

Turning to `Cc1ccc(Nc2[nH]c(C(=O)c3ccc(Cl)cc3)c(N)c2C(=S)Nc2ccccc2)nc1`, the GI50 is 31.2 µM with DU-145 prostate; 77.8 µM in the assay on M14 melanoma; 15.3 µM with UACC-62 melanoma; 45.4 µM with K-562 leukemia; 63.6 µM with OVCAR-4 ovarian; 25.3 µM with CAKI-1 renal. Further, the results for the GI50 with KM12 colon and with MOLT-4 leukemia were 16.8 µM and 56.3 µM, respectively. Also, the TGI in the assay with DU-145 prostate is more than 100 µM; with M14 melanoma, more than 100 µM; in the assay with UACC-62 melanoma, 41 µM; in the assay with K-562 leukemia, more than 100 µM; with OVCAR-4 ovarian, more than 100 µM; in the assay with CAKI-1 renal it was 76.4 µM. For the same molecule, the figures for the TGI in the assay with KM12 colon and with MOLT-4 leukemia were 54.9 µM and more than 100 µM, respectively.
